B1: E3: humanized, affinity matured anti-NGF antagonist antibody; variable regions SEQ ID NO:1 and 2; human IgG2a (A330P331 to S330S331), kappa (antibody, V domains shown)
VH: QVQLQESGPGLVKPSETLSLTCTVSGFSLIGYDLNWIRQPPGKGLEWIGIIWGDGTTDYNSAVKSRVTISKDTSKNQFSLKLSSVTAADTAVYYCARGGYWYATSYYFDYWGQGTLVTVS
VL: DIQMTQSPSSLSASVGDRVTITCRASQSISNNLNWYQQKPGKAPKLLIYYTSRFHSGVPSRFSGSGSGTDFTFTISSLQPEDIATYYCQQEHTLPYTFGQGTKLEIKRT
modifications: human IgG2a constant (A330S/P331S) and kappa constant missing

Experiments:
[1] = test system: complete Freund's adjuvant (CFA)-induced chronic arthritis; assay: CFA arthritis rats, paw volume (plethysmometer); assay type: in vivo, rat; conditions: for change of paw volume compared to vehicle-treated arthritic group: E3 1 mg/kg or 911 10 mg/kg i.v. D14+D19, indomethacin 3 mg/kg/day p.o.; for paw volume (mean of right and left hindpaw): arthritic rats
Protocol: Five groups of 10 animals (5-weeks old male Lewis rats-LEWIS Lew/Ico, from Charles River Laboratories—Belgium) each were included in this study: Group 1: non arthritic rats/saline (vehicle), i.v. bolus, n=10; Group 2: arthritic rats/saline (vehicle), i.v. bolus, n=10; Group 3: arthritic rats/Indomethacin 3 mg/kg, p.o daily over 10 days, n=10; […]; Group 5: arthritic rats/911, 10 mg/kg, i.v. bolus, n=10. The doses were expressed in terms of free active substance (mg/kg). E3 and 911 were extemporaneously prepared in saline from the stock solution to the desired concentration. […]. All diluted solutions (before i.v. injection) were sterilized using a sterile filter unit of 0.20.μm. pH and osmolarity values of diluted solutions were measured before each i.v. injection. Before the first i.v., osmolarity (mosm/L) for saline, E3, and 911 were 278, 269, and 308 respectively; pH for saline, E3, and 911 were 5.93, 6.76, 6.71 respectively. Before the second i.v., osmolarity (mosm/L) for saline, E3, and 911 were 280, 270, and 309 respectively; pH for saline, E3, and 911 were 5.86, 6.72, and 6.59 respectively.
E3 or 911 or saline were administered by i.v. bolus injection on Day 14 and Day 19 after arthritis induction in a coded and random order with a volume of 5 mL/kg. The non arthritic group was given by i.v. bolus injection of saline on Day 14 and Day 19 with a volume of 5 mL/kg. Indomethacin was extemporaneously prepared in 1% methylcellulose. Indomethacin was administered by oral route (p.o.) once daily over 10 days from Day 14 to Day 23 after arthritis induction in a coded and random order with a volume of 10 mL/kg.
The right and left hindpaw volume of each rat (arthritic and non arthritic rats) was measured using a plethysmometer. The measurements were performed at the following times (after induction of arthritis): Day 14 (before i.v. bolus or p.o. administration); and Day 24 (5 days after the last i.v. bolus injection or 24 h after the last p.o. administration). All measurements were performed between 9:00 and 12:00 am. All the data were collected and stored by the WinDas software.
(§1) All results were reported as Mean ±S.E.M. of 10 rats in each group at each time point. Paw volume was expressed in ml calculated from the mean value of the right and left paw volume. Arthritis index was calculated from the sum of the score obtained for each of the 4 paws. The nociceptive response was evaluated by the intensity of the level of vocalization recorded for each animal (mean of 4 values: 2 times/paw) in mV. The percentage inhibition of the nociceptive response was calculated from the mean value of the vehicle-treated arthritic group [(mean value of vehicle-treated arthritic group−mean value of treated arthritic group/mean value of vehicle-treated arthritic group)*100]. Body weight was expressed in grams. Hindpaws (left and right) weight was expressed in grams. Cytokine levels (IL-6, IL-1β, TNF-α and TGF-β1) of each hind paw was expressed in pg/ml. Circulating levels of TGF-β1 was expressed in pg/ml. Radiological index for each parameter (demineralization, erosions, periostal reaction, soft tissue damage, space joint, osteogenesis deformity) and total radiological index (total score) were calculated from the sum of the scores obtained for each parameter. The inter-group significances of the deviations between the values of vehicle-treated group (arthritic rats) and vehicle-treated group (non arthritic rats) were assessed by the Student t test or Mann-Whitney Rank Sum Test when equal variance or normality test failed. The inter-group significances of the deviations between the values of vehicle-treated group (arthritic rats) and E3- and 911- and Indomethacin-treated groups were assessed by the 1-way analysis of variance ANOVA followed by the non-paired Dunnett t test. A probability of P<0.05 was considered as significant. All statistical analysis was performed by the Sigmastat™ software.

[2] = test system: complete Freund's adjuvant (CFA)-induced chronic arthritis; assay: CFA arthritis rats, hindpaw weight; assay type: in vivo, rat; conditions: arthritic rats; E3 1 mg/kg or 911 10 mg/kg i.v. D14+D19, indomethacin 3 mg/kg p.o. over 10 days; D24
Protocol: On Day 24 (5 days after the last i.v. bolus injection or 24 hours after the last p.o. administration) (after X-rays radiographies), each animal hindpaw (arthritic and non arthritic rats) was weighed and was collected in a labelled polyethylene vial. Tissue samples were frozen in liquid nitrogen and stored at −80° C.
as §1

[3] = E3 1 mg/kg or 911 10 mg/kg i.v. D14+D19, indomethacin 3 mg/kg/day p.o. 10 days, D24

Molecule | change of paw volume compared to vehicle-treated arthritic group ([1]; D24) | paw volume (mean of right and left hindpaw) ([1]; D14 (before dosing)) | paw volume (mean of right and left hindpaw) [1, 3] | left hindpaw weight [2] | right hindpaw weight [2]
COc1ccc2c(c1)c(CC(=O)O)c(C)n2C(=O)c1ccc(Cl)cc1 [Indomethacin, reference compound] | about −0.75 mL | 2.08 ± 0.06 mL | 1.59 ± 0.03 mL | 2.23±0.04 grams | 2.20±0.05 grams
B1 | about 0.37 mL | 2.06 ± 0.03 mL | 2.71 ± 0.09 mL | 3.86±0.14 grams | 3.72±0.13 grams

From US20080182978A1, “ANTI-NGF ANTIBODIES AND METHODS USING SAME” (RINAT NEUROSCIENCE CORP, priority 2002, published 2008)
